Here are results for eight compounds from patent US9068970B2, “Efficient and effective supplement screening for the development of chemically defined media in cell culture” (Abbvie Inc., priority 2010, dated 2015).

Read-outs that look alike come from different tables or passages of the source.

Common to all, as to format: cell-based
Experiment [1] concerns recombinant IgG producing Chinese Hamster Ovary cell line (CHO cell line #1). Put plainly: Supplement screening: process performance (peak VCD and/or harvest titer) by inspectional/statistical analysis. The procedure:
Standard Analysis of Variance (ANOVA) was used to measure the significance of individual supplements and their respective interactions towards the resulting cell culture technique performance. Individual analyses were conducted on both peak viable cell density and harvest titer for each of the respective screening experiments. Three different levels of each media supplement were used in these experiments: unsupplemented (Level 1), lightly supplemented (Level 2), and heavily supplemented (Level 3). […] The optimization subroutine intrinsic to the statistics software was used to analyze the screening dataset determine the identity of a high performance media blend. It is important to note that the selection method is a mathematical exercise which can lead to multiple blends identified as having the highest performance parameters, and the results are highly dependent on the initial first guess. Three particular high performance blends were identified for further evaluation: […] The supplements whose relative concentrations supported a distinct pattern of either increasing or decreasing process performance were categorized into the clustered classification. […] These supplements were either compounds or groups of similar compounds such as polyamines, essential amino acids, and vitamins.

Experiment [2] shares this test system. Put plainly: 24-well plate media supplement screening: peak viable cell density (CellTiter 96 AQueous). The procedure:
(§1) 24-well plates were utilized at a working volume of 1.5 mL per well to serve as the platform for media supplement screening. An in-house, base chemically defined media (CDM #1) was used as the basal media for the purposes of the experiments. A recombinant IgG producing Chinese Hamster Ovary cell line (CHO cell line #1) was used for the media supplement screening phase of the experiments.
All 24-well plate screening experiments were designed using JMP7 commercially available statistics software (Cary, N.C.) using custom experimental options. Six individual media supplement screening experiments were performed to test over a hundred different supplements in statistically designed experiments and in a serial fashion. All screening experiments were performed at […] cultured at 210 rpm on a shaker table in a 5% humidified CO2 incubator. Gas permeable, rayon film plate covers (VWR International, Radnor, Pa., Catalog #60941-086) were employed as necessary to provide a sterile barrier between the well plates, the plastic plate cover, and the culture atmosphere. Supplement solutions were manually pipetted into the respective plate wells using concentrated, sterile stock solutions. The comprehensive list of media supplements evaluated for cell culture process improvement is shown below in Table 2:
(§2) Two cell culture performance indicators were measured in the high-throughput screening experiments: peak viable cell density and harvest titer. Time point samples were withdrawn from each of the respective plate wells on Days 6, 7, and 8 post inoculation and measured for their respective viable cell densities spectrophotometrically via the CellTiter 96 AQueous Solution Cell Proliferation Assay Kits™ (Promega, Madison, Wis.). Harvest Titer measurements were conducted via high performance liquid chromatography (HPLC) with a Poros A™ affinity column (Applied Biosystems, Foster City, Calif.). All experimental wells supplemented with a particular combination of media compounds were compared to an unsupplemented control, with the results expressed as relative values relative to the control.
(§3) Two cell culture performance indicators were measured in the high-throughput screening experiments as well as media verification experiments; peak viable cell density (VCD) and harvest titer. […] A few days after the last cell count measurement sample the plates were centrifuged and the supernatant was collected and stored at −80° C. for future analysis. Harvest titer measurements were conducted via high performance liquid chromatography (HPLC) with a Poros A™ affinity column (Applied Biosystems, Foster City, Calif.). All experimental wells supplemented with a particular combination of media compounds were compared to an unsupplemented control, with the results expressed as values relative to the control. For the media verification experiments in larger-scale shaker and spinner flasks, viable cell density and viability were measured via Cedex automated cell counters (Roche Applied Science, Indianapolis, Ind.). Harvest titer measurements were similarly measured via HPLC.
(§4) Standard Analysis of Variance (ANOVA) was used to measure the significance of individual supplements and their respective interactions towards the resulting cell culture technique performance. Individual analyses were conducted on both peak viable cell density and harvest titer for each of the respective screening experiments. Three different levels of each media supplement were used in these experiments: unsupplemented (Level 1), lightly supplemented (Level 2), and heavily supplemented (Level 3). […] The optimization subroutine intrinsic to the statistics software was used to analyze the screening dataset determine the identity of a high performance media blend. It is important to note that the selection method is a mathematical exercise which can lead to multiple blends identified as having the highest performance parameters, and the results are highly dependent on the initial first guess.

Experiment [3] shares this test system. Put plainly: 24-well plate media supplement screening: harvest titer (HPLC, Poros A affinity column). The procedure:
as §1
All 24-well plate screening experiments were designed using JMP7 commercially available statistics software (Cary, N.C.) using custom experimental options. Six individual media supplement screening experiments were performed to test over a hundred different supplements in statistically designed experiments and in a serial fashion. […] Supplement solutions were manually pipetted into the respective plate wells using concentrated, sterile stock solutions. The comprehensive list of media supplements evaluated for cell culture process improvement is shown below in Table 2:
as §2, §3, §4
The aforementioned supplements were evaluated for improvements in cell culture technique performance.

Experiment [4] shares this test system. Description: JMP7 statistical identification of high performance media supplementation from a 15-supplement screening experiment. The protocol: as §4
Fifteen of these supplements, or groups of supplements, were screened in a separate statistically designed experiment for the final determination of high performance media blends for the maximization of peak VCD, harvest titer, and both of these variables simultaneously.
The JMP7 statistical software program was further used to identify the high performance media supplementation for maximizing peak VCD, harvest titer, and both simultaneously.

The mark [5] stands for this setting: univariate analysis of varying supplement concentrations.
The mark [6] stands for this setting: HTS experiments, CDM #1, relative to unsupplemented control.
The mark [7] stands for this setting: predicted amount for addition into the unsupplemented control media.
Where [8] appears, read: range given, variability in culture volumes.

With `OC1C(O)C(O)C(O)C(O)C1O` (centres unmarked) [i-inositol], the “Process Performance Pattern” value in experiment [1] (setting [5]) is on record as “Wide dispersal”. In experiment [2] (setting [6]), the “Effect on Peak VCD” value is listed as “No change”. Further, the “Effect on Harvest Titer” value in experiment [3] (setting [6]) is reported as “No change”. Also, in experiment [4] (setting [7]), the “Concentration Target (Range) for Increase of Harvest Titer” value is reported as “+0.05 (0.05-0.06) g/L”; the “Concentration Target (Range) for Increase of Peak VCD” value is recorded as “+0.11 (0.09-0.12) g/L”; the “Concentration Target (Range) for Increase of Peak VCD and Harvest Titer” value is on record as “+0.19 (0.17-0.22) g/L”.
In the case of `O=P(O)(O)O` [Potassium phosphate], the “Process Performance Pattern” value in experiment [1] was “Clustered”. Further, the “Effect on Peak VCD” value in experiment [2] is “Increase”. Further, the “Effect on Harvest Titer” value in experiment [3] is on record as “Decrease”. In experiment [4], the “Concentration Target (Range) for Increase of Harvest Titer” value is “+0.09 (0.08-0.10) g/L”; the “Concentration Target (Range) for Increase of Peak VCD” value was “+0.10 (0.09-0.12) g/L”; the “Concentration Target (Range) for Increase of Peak VCD and Harvest Titer” value is “+0.10 (0.09-0.12) g/L”.
With `O=S(=O)([O-])[O-].[Cu+2]` [Cupric sulfate], the “Process Performance Pattern” value in experiment [1] is recorded as “Wide dispersal”. In experiment [2], the “Effect on Peak VCD” value was “Increase”. Also, in experiment [3], the “Effect on Harvest Titer” value is “Decrease”. Also, in experiment [4], the “Concentration Target (Range) for Increase of Harvest Titer” value stood at 0 g/L; the “Concentration Target (Range) for Increase of Peak VCD” value was “+0.02 g/L”; the “Concentration Target (Range) for Increase of Peak VCD and Harvest Titer” value is recorded as 0 g/L.
Regarding Manganese chloride, in experiment [1] (setting [5]), the “Process Performance Pattern” value is “Wide dispersal”. The “Effect on Peak VCD” value in experiment [2] (setting [6]) is “Increase”. Also, the “Effect on Harvest Titer” value in experiment [3] (setting [6]) is “No change”. In experiment [4] (setting [7]), the “Concentration Target (Range) for Increase of Harvest Titer” value was “+1.07 × 10^−4 g/L”; the “Concentration Target (Range) for Increase of Peak VCD” value was “+6.67 × 10^−5^ g/L”; the “Concentration Target (Range) for Increase of Peak VCD and Harvest Titer” value is given as 0 g/L. In experiment [4] (setting [8]), the “Concentration Range for Increase of Harvest Titer” value is given as “(9.46 × 10^−5-1.21 × 10^−4) g/L” and the “Concentration Range for Increase of Peak VCD” value is recorded as “(5.91 × 10^−5-7.59 × 10^−5) g/L”.
On to `OC[C@H]1O[C@@H]2O[C@H]3[C@H](O)[C@@H](O)[C@@H](O[C@H]4[C@H](O)[C@@H](O)[C@@H](O[C@H]5[C@H](O)[C@@H](O)[C@@H](O[C@H]6[C@H](O)[C@@H](O)[C@@H](O[C@H]7[C@H](O)[C@@H](O)[C@@H](O[C@H]8[C@H](O)[C@@H](O)[C@@H](O[C@H]1[C@H](O)[C@H]2O)O[C@@H]8CO)O[C@@H]7CO)O[C@@H]6CO)O[C@@H]5CO)O[C@@H]4CO)O[C@@H]3CO` [β-cyclodextrin], for which the “Process Performance Pattern” value in experiment [1] (setting [5]) is given as “Wide dispersal”. The “Effect on Peak VCD” value in experiment [2] (setting [6]) is given as “Increase”. Further, the “Effect on Harvest Titer” value in experiment [3] (setting [6]) is on record as “Increase”. In addition, in experiment [4] (setting [7]), the “Concentration Target (Range) for Increase of Harvest Titer” value is 0 g/L; the “Concentration Target (Range) for Increase of Peak VCD” value is given as “+0.16 (0.14-0.18) g/L”; the “Concentration Target (Range) for Increase of Peak VCD and Harvest Titer” value is reported as 0 g/L.
In the case of `[Cl-].[Cl-].[Zn+2]` [Zinc chloride], the “Process Performance Pattern” value in experiment [1] (setting [5]) is given as “Clustered”. In experiment [2] (setting [6]), the “Effect on Peak VCD” value is “No change”. The “Effect on Harvest Titer” value in experiment [3] (setting [6]) is “Increase”. Further, in experiment [4] (setting [7]), the “Concentration Target (Range) for Increase of Harvest Titer” value was “+5.46 × 10^−3 g/L”; the “Concentration Target (Range) for Increase of Peak VCD” value is given as “+2.05 × 10^−3 g/L”; the “Concentration Target (Range) for Increase of Peak VCD and Harvest Titer” value is “+5.12 × 10^−3 g/L”. In experiment [4] (setting [8]), the “Concentration Range for Increase of Harvest Titer” value is listed as “(4.85 × 10^−3-6.22 × 10^−3) g/L”; the “Concentration Range for Increase of Peak VCD” value is “(1.82 × 10^−3-2.33 × 10^−3) g/L”; the “Concentration Range for Increase of Peak VCD and Harvest Titer” value was “(4.54 × 10^−3-5.83 × 10^−3) g/L”.
Regarding Calcium pantothenate, the “Process Performance Pattern” value in experiment [1] (setting [5]) is “Wide dispersal”. Further, the “Effect on Peak VCD” value in experiment [2] (setting [6]) is listed as “Increase”. Besides, in experiment [3] (setting [6]), the “Effect on Harvest Titer” value is reported as “No change”. Besides, in experiment [4] (setting [7]), the “Concentration Target (Range) for Increase of Harvest Titer” value is 0 g/L; the “Concentration Target (Range) for Increase of Peak VCD” value is “+0.15 (0.13-0.17) g/L”; the “Concentration Target (Range) for Increase of Peak VCD and Harvest Titer” value is reported as 0 g/L.
In the case of `OC[C@H]1O[C@@H]2O[C@H]3[C@H](O)[C@@H](O)[C@@H](O[C@H]4[C@H](O)[C@@H](O)[C@@H](O[C@H]5[C@H](O)[C@@H](O)[C@@H](O[C@H]6[C@H](O)[C@@H](O)[C@@H](O[C@H]7[C@H](O)[C@@H](O)[C@@H](O[C@H]1[C@H](O)[C@H]2O)O[C@@H]7CO)O[C@@H]6CO)O[C@@H]5CO)O[C@@H]4CO)O[C@@H]3CO` [α-cyclodextrin], in experiment [1] (setting [5]), the “Process Performance Pattern” value is “Wide dispersal”. Moreover, the “Effect on Peak VCD” value in experiment [2] (setting [6]) was “Increase”. Also, the “Effect on Harvest Titer” value in experiment [3] (setting [6]) is recorded as “Increase”. In addition, in experiment [4] (setting [7]), the “Concentration Target (Range) for Increase of Harvest Titer” value is given as 0 g/L; the “Concentration Target (Range) for Increase of Peak VCD” value is reported as “+0.16 (0.14-0.18) g/L”; the “Concentration Target (Range) for Increase of Peak VCD and Harvest Titer” value is on record as 0 g/L.
